Like-named read-outs stand apart in the source and are kept apart here.
Columns and labels:
[1] = cited from earlier work
[2] = background description of the drug substance; cited from earlier work
[3] = tested on: tumour models including colorectal tumour models; settings: preclinical studies; broad spectrum of tumour models including colorectal; mediated by antiangiogenic and antiproliferative effects; cited from earlier work
[4] = Stability on handling and storage of crystalline forms; settings: without any significant or measurable change in morphology and physicochemical characteristics
From the text: (§1) The merit of the process according to the present invention resides in that product isolated after drying is directly obtained as crystalline Form I of Regorafenib (I). Said material is found devoid of any other crystal lattice and is adequately stable to handle and store for longer time (at least up to more than 6 months) without any significant or measurable change in its morphology and physicochemical characteristics. Crystalline Form I of Regorafenib (I) obtained according to the process of the present invention results in the final API purity by of more than 99.5% w/w, and found to be anhydrous with moisture content of not more than 0.5%.
as §1, with “Form III” for “Form I”, “by HPLC” for “by”

Row | time adequately stable to handle and store [4] | SMILES | solubility ([1]; in 2-propanol) | solubility ([1]; in PEG 400 (macrogol)) | solubility ([1]; in acetone) | solubility ([1]; in acetonitrile) | solubility ([1]; in dichloromethane) | solubility ([1]; in dilute acid solution) | solubility ([1]; in dilute alkaline solution) | solubility ([1]; in ethanol) | solubility ([1]; in ethyl acetate) | solubility ([1]; in glycerine) | solubility ([1]; in methanol) | solubility ([1]; in n-heptane) | solubility ([1]; in propylene glycol) | solubility ([1]; in toluene) | solubility ([1]; in water) | hygroscopicity [2] | antitumour activity [3]
1 |  | CNC(=O)c1cc(Oc2ccc(NC(=O)Nc3ccc(Cl)c(C(F)(F)F)c3)c(F)c2)ccn1 [Regorafenib, 4-[4-({[4-chloro-3-(trifluoromethyl)phenyl]carbamoyl}amino)-3-fluorophenoxy]-N-methylpyridine-2-carboxamide] | slightly soluble | soluble | sparingly soluble | slightly soluble | slightly soluble | practically insoluable | practically insoluable | slightly soluble | slightly soluble | practically insoluable | slightly soluble | practically insoluable | slightly soluble | practically insoluable | practically insoluable | not hygroscopic | demonstrated antitumour activity
2 | more than 6 months | CNC(=O)c1cc(Oc2ccc(NC(=O)Nc3ccc(Cl)c(C(F)(F)F)c3)c(F)c2)ccn1 [crystalline Form I of Regorafenib (I), 4-[4-({[4-chloro-3-(trifluoromethyl)phenyl]carbamoyl}amino)-3-fluorophenoxy]-N-methylpyridine-2-carboxamide] |  |  |  |  |  |  |  |  |  |  |  |  |  |  |  |  | 

— US9790185B2, “Process for the preparation of regorafenib and its crystalline forms” (SHILPA MEDICARE LIMITED, priority 2014, dated 2017)
